Measurements reported in US6495592B1, “Tracheal smooth muscle relaxants” (Nippon Suisan Kaisha, Ltd., priority 1996, dated 2002).

What was measured:
rats = details: male, rat, in vivo
Description: Toxicity test was conducted only for the Compounds 11, 43 and 80 by means of a single oral administration to rats.
Animals used: three males

tracheal smooth muscle = assay: Dilating action to contraction of tracheal smooth muscle (potassium chloride-induced contraction of isolated trachea segment, Magnus tube); assay type: cell-based; details: Cavia porcellus; 30 μM test substance; contraction induced by 72.7 mM potassium chloride; guinea pig (Hartley, male) trachea segment; read-out: Activity (suppressing rate for contraction by potassium chloride)
Description: Each sample is tested by using two segment obtained from one animal; the trachea was removed from a guinea pig (Hartley, male, seven weeks age) and was made the segment, 6 mm in length. The segment was suspended in a Magnus tube containing a physiological salt solution of 37° C. with a flow of mixed gas consisting of 95% oxygen and 5% carbon dioxide gas. A base-line tension of 1 g was applied to the segment and, after tension of the sample became stable, the solution was exchanged with a solution containing 72.7 mM of potassium chloride to induce a contraction. When tension of the contraction by potassium chloride became stable, a compound of the formula (1) was added as a test substance to measure the change in the tension. The test substance was dissolved in dimethyl sulfoxide and added thereto. Incidentally, at the stage of addition, the final concentration of dimethyl sulfoxide was made not more than 0.3%. Changes in the tension was recorded on a recorder (R-64V, Rika Denki) after introducing to an amplifier for strain pressure (AP-621G, Nippon Koden Kogyo) via an FD pickup transducer (TB-611T, Nippon Koden Kogyo). Tension before addition of potassium chloride was set as 0 while that after addition of potassium chloride was set as 100 and the suppressing rate for contraction by potassium chloride after addition of the test substance was expressed by a relative percentage whereby the activity was determined according to the following criteria.
The Compound No. in the table is the same as that in the Production Examples.

SMILES	minimum lethal dose (rats)	inhibition at 30 µM (tracheal smooth muscle)
O=C1Cc2ccccc2Oc2cc(O)cc(O)c21 [Compound 11, 7,9-dihydroxy-10,11-dihydrodibenz[b,f]oxepin-10-one]	not less than 2,000 mg/kg	≥ 50%
O=C1Cc2cc(C(F)(F)F)ccc2Oc2cc(O)cc(O)c21 [Compound 38, 7,9-dihydroxy-2-trifluoromethyl-10,11-dihydrodibenz[b,f]oxepin-10-one]		≥ 50%
Oc1cc(O)c2c(c1)Oc1ccc(C(F)(F)F)cc1CC2 [Compound 39, 8-trifluoromethyl-10,11-dihydrodibenz[b,f]oxepin-1,3-diol]		≥ 50%
O=C1Cc2cc(O)c(O)cc2Oc2cc(O)cc(O)c21 [Compound 40, 2,3,7,9-tetrahydroxy-10,11-dihydrodibenz[b,f]oxepin-10-one]		≤ 50%
O=C1Cc2ccccc2Sc2cc(O)c(O)cc21 [Compound 43, 7,8-dihydroxy-10,11-dihydrodibenzo[b,f]thiepin-10-one]	not less than 2,000 mg/kg	
Oc1cc2c(cc1O)Sc1ccccc1CC2 [Compound 44, 10,11-dihydrodibenz[b,f]thiepin-2,3-diol]		≥ 50%
CC(=O)c1c(O)cc(O)c2c1Oc1ccccc1CC2 [Compound 47, 4-acetyl-10,11-dihydrodibenz[b,f]oxepin-1,3-diol]		≥ 50%
O=C1Cc2c(F)cccc2Oc2cc(O)cc(O)c21 [Compound 49, 1-fluoro-7,9-dihydroxy-10,11-dihydrodibenz[b,f]oxepin-10-one]		≥ 50%
O=C1Cc2c(F)cccc2Oc2cc(F)c(F)cc21 [Compound 63, 1,7,8-trifluoro-10,11-dihydrodibenz[b,f]oxepin-10-one]		≥ 50%
O=C1Cc2cc([N+](=O)[O-])ccc2Oc2cc(O)cc(O)c21 [Compound 70, 2-nitro-7,9-dihydroxy-10,11-dihydrodibenz[b,f]oxepin-10-one]		≥ 50%
Nc1ccc2c(c1)CC(=O)c1c(O)cc(O)cc1O2 [Compound 71, 2-amino-7,9-dihydroxy-10,11-dihydrodibenz[b,f]oxepin-10-one]		≥ 50%
Nc1ccc2c(c1)CCc1c(O)cc(O)cc1O2 [Compound 77, 8-amino-10,11-dihydrodibenz[b,f]oxepin-1,3-diol]		≤ 50%
O=C1Cc2ccccc2Sc2cc(O)cc(O)c21 [Compound 80, 7,9-dihydroxy-10,11-dihydrodibenzo[b,f]thiepin-10-one]	not less than 2,000 mg/kg	≥ 50%
Oc1cc(O)c2c(c1)Sc1ccccc1CC2 [Compound 81, 10,11-dihydrodibenzo[b,f]thiepin-1,3-diol]		≥ 50%
CC(=O)c1c(O)c2c(c(C(C)=O)c1O)Sc1ccccc1CC2 [Compound 84, 2,4-diacetyl-10,11-dihydrodibenzo[b,f]thiepin-1,3-diol]		≥ 50%
CC(=O)c1c(O)cc(O)c2c1Sc1ccccc1CC2 [Compound 85, 4-acetyl-10,11-dihydrodibenzo[b,f]thiepin-1,3-diol]		≥ 50%
CC(=O)c1ccc2c(c1)CCc1c(O)cc(O)cc1S2 [Compound 86, 8-acetyl-10,11-dihydrodibenzo[b,f]thiepin-1,3-diol]		≥ 50%

SMILES	minimum lethal dose (rats)	inhibition at 30 µM (tracheal smooth muscle)
CCC(=O)c1c(O)c2c(c(C(=O)CC)c1O)Sc1ccccc1CC2 [Compound 89, 2,4-dipropionyl-10,11-dihydrodibenzo[b,f]thiepin-1,3-diol]		≥ 50%
CCC(=O)c1c(O)cc(O)c2c1Sc1ccccc1CC2 [Compound 90, 4-propionyl-10,11-dihydrodibenzo[b,f]thiepin-1,3-diol]		≥ 50%
CCC(=O)c1ccc2c(c1)CCc1c(O)cc(O)cc1S2 [Compound 91, 8-propionyl-10,11-dihydrodibenzo[b,f]thiepin-1,3-diol]		≥ 50%
CC(=O)c1ccc2c(c1)C=Cc1cc(O)c(O)cc1S2 [Compound 92, 8-acetyldibenzo[b,f]thiepin-2,3-diol]		≥ 50%
CC(=O)Nc1ccc2c(c1)CC(=O)c1c(O)cc(O)cc1O2 [Compound 94, N-acetyl-2-amino-7,9-dihydroxy-10,11-dihydrodibenzo[b,f]oxepin-10-one]		≥ 50%
CC(=O)c1ccc2c(c1)CCc1c(O)cc(O)cc1O2 [Compound 95, 8-acetyl-10,11-dihydrodibenzo[b,f]oxepin-1,3-diol]		≥ 50%
CC(O)c1ccc2c(c1)CCc1c(O)cc(O)cc1O2 (stereo not drawn) [Compound 96, 8-(1-hydroxyethyl)-10,11-dihydrodibenzo[b,f]oxepin-1,3-diol]		≥ 50%
O=C(O)Cc1ccc2c(c1)CCc1c(O)cc(O)cc1O2 [Compound 97, 7,9-dihydroxy-10,11-dihydrodibenzo[b,f]oxepin-2-acetic acid]		≤ 50%
Cc1ccc2c(c1)CC(=O)c1cc(O)c(O)cc1S2 [Compound 104, 7,8-dihydroxy-2-methyl-10,11-dihydrodibenzo[b,f]thiepin-10-one]		≥ 50%
CC(C)c1ccc2c(c1)CC(=O)c1cc(O)c(O)cc1S2 [Compound 106, 7,8-dihydroxy-2-(2-propyl)-10,11-dihydrodibenzo[b,f]thiepin-10-one]		≥ 50%
CSc1ccc2c(c1)CC(=O)c1c(O)cc(O)cc1O2 [Compound 108, 2-thiomethyl-7,9-dihydroxy-10,11-dihydrodibenzo[b,f]oxepin-10-one]		≥ 50%
O=C1Cc2cc(Br)ccc2Oc2cc(O)cc(O)c21 [Compound 110, 2-bromo-7,9-dihydroxy-10,11-dihydrodibenzo[b,f]oxepin-10-one]		≥ 50%
CCc1ccc2c(c1)CC(=O)c1c(O)cc(OC)cc1O2 [Compound 111, 2-ethyl-9-hydroxy-7-methoxy-10,11-dihydrodibenzo[b,f]oxepin-10-one]		≥ 50%
CCc1ccc2c(c1)CC(=O)c1c(O)cc(O)cc1O2 [Compound 112, 2-ethyl-7,9-dihydroxy-10,11-dihydrodibenzo[b,f]oxepin-10-one]		≥ 50%
O=C1Cc2cc(C#CCO)ccc2Oc2cc(O)cc(O)c21 [Compound 114]		≥ 50%
O=C1Cc2cc(C#CCCO)ccc2Oc2cc(O)cc(O)c21 [Compound 115, 2-(4-hydroxy-1-butynyl)-7,9-dihydroxy-10,11-dihydrodibenzo[b,f]oxepin-10-one]		≥ 50%
O=C1Cc2cc(C#CCCCO)ccc2Oc2cc(O)cc(O)c21 [Compound 116, 2-(5-hydroxy-1-pentynyl)-7,9-dihydroxy-10,11-dihydrodibenzo[b,f]oxepin-10-one]		≥ 50%
